Experimental data from publication PMC12227648, “Chemoproteomics identifies protein ligands for monoacylglycerol lipids” (Communications Chemistry, 2025).

Tests used:
[1] = molecular target: T1, mouse HPCA (Hippocalcin) (Mus musculus, UniProt P84075); assay: effect on PG-DA photo-labelling, in-gel fluorescence; settings: HPCA 10 uM, PG-DA 10 uM, 1-PG 0-250 uM, 37 C, 30 min; raises, not competes, probe binding (suggested cooperative)
T1 construct: full-length cDNA in pET45b(+), N-terminal 6x-His tag kept, E. coli BL21 (DE3), HisTrap purified; major ~20 kDa and minor ~25 kDa bands

[2] = molecular target: T1, mouse HPCA (Hippocalcin); assay: UV photocrosslinking, click rhodamine-azide, in-gel fluorescence; format: binding; settings: probe 10 uM or 0-250 uM, HPCA 10 uM, 50 mM Tris pH 8.0, 37 C, 6 min UV 365 nm, covalent photo-crosslink
[3] = molecular target: T2, HPCA (N-terminal FLAG tag) in HEK293T lysates (Mus musculus, UniProt P84075); assay: UV photocrosslinking in lysate, click, in-gel fluorescence; format: biochemical; settings: probe 50 uM, 2 mg/mL HEK293T lysate; covalent photo-crosslink; mock control
T2 construct: N-terminal FLAG tag, transiently overexpressed in HEK293T

CCCCCCCCCCCCCCCC(=O)OCC(O)CO (stereo not shown) [1-PG]
effect on PG-DA photo-labelling, in-gel fluorescence [1]: increasing the 1-PG concentration resulted in the heightened binding of the PG-DA probe

C#CCCCC1(CCCCCCCCCC(=O)O)N=N1 [PA-DA]
UV photocrosslinking, click rhodamine-azide, in-gel fluorescence ([2]; weaker control probe): PG-DA probe binds far more to HPCA than the PA-DA probe

C#CCCCC1(CCCCCCCCCC(=O)OCC(O)CO)N=N1 (stereo not shown) [PG-DA]
UV photocrosslinking in lysate, click, in-gel fluorescence [3]: PG-DA probe, but not PA-DA probe, was able to bind to HPCA in HEK293T lysates
UV photocrosslinking, click rhodamine-azide, in-gel fluorescence ([2]; Ca2+ surplus versus EDTA compared): PG-DA bound significantly more to mouse HPCA than the PA-DA probe
